Reference: patent KR20080072496A, “노스탁속 균주 유래 아밀로플루란네이즈 및 이를 이용한고순도 말토올리고당의 제조방법” (재단법인서울대학교산학협력재단, priority 2007, dated 2008)

Target: T1, Nostoc sp. PCC73102 amylopullulanase, SEQ ID NO: 4, recombinant from pETNPul6xH with C-terminal Leu-Glu-6His (노스탁속 균주 유래 아밀로플루란네이즈) (Nostoc punctiforme (strain ATCC 29133 / PCC 73102), UniProt B2IUW9)
T1 sequence (B2IUW9 1-488): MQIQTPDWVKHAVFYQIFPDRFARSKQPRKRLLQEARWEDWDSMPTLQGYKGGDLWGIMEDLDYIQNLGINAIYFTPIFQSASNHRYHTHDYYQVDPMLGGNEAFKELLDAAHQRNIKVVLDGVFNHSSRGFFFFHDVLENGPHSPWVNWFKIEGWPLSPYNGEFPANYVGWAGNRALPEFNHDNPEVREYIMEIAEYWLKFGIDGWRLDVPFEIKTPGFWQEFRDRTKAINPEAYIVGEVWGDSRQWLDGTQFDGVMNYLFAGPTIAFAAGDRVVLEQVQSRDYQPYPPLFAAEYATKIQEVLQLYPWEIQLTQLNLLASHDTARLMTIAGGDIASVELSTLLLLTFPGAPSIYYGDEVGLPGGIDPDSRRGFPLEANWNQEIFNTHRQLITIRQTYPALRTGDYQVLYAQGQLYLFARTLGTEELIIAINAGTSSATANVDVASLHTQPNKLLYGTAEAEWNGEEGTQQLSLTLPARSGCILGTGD
Assay: Kinetics of amylopullulanase on maltoheptaose, maltooctaose and maltononaose (Example 6-2, glucose quantified by GOD-POD method)
Type: biochemical
Settings: 25 °C, pH 7, 3 min

Structure (SMILES)	Kcat, ratio to Kcat of maltoheptaose (relative to maltoheptaose (G7))	Km, ratio to Km of maltononaose (relative to maltononaose (G9))	Km, ratio to Km of maltooctaose (relative to maltooctaose (G8))
OC[C@H]1O[C@H](O[C@H]2[C@H](O)[C@@H](O)[C@@H](O[C@H]3[C@H](O)[C@@H](O)[C@@H](O[C@H]4[C@H](O)[C@@H](O)[C@@H](O[C@H]5[C@H](O)[C@@H](O)[C@@H](O[C@H]6[C@H](O)[C@@H](O)[C@@H](O[C@H]7[C@H](O)[C@@H](O)[C@@H](O[C@H]8[C@H](O)[C@@H](O)[C@@H](O[C@H]9[C@H](O)[C@@H](O)C(O)O[C@@H]9CO)O[C@@H]8CO)O[C@@H]7CO)O[C@@H]6CO)O[C@@H]5CO)O[C@@H]4CO)O[C@@H]3CO)O[C@@H]2CO)[C@H](O)[C@@H](O)[C@@H]1O (stereo partly drawn) [말토노나오스, maltononaose]	~3 배 (fold)		
OC[C@H]1O[C@H](O[C@H]2[C@H](O)[C@@H](O)[C@@H](O[C@H]3[C@H](O)[C@@H](O)[C@@H](O[C@H]4[C@H](O)[C@@H](O)[C@@H](O[C@H]5[C@H](O)[C@@H](O)[C@@H](O[C@H]6[C@H](O)[C@@H](O)[C@@H](O[C@H]7[C@H](O)[C@@H](O)C(O)O[C@@H]7CO)O[C@@H]6CO)O[C@@H]5CO)O[C@@H]4CO)O[C@@H]3CO)O[C@@H]2CO)[C@H](O)[C@@H](O)[C@@H]1O (stereo partly drawn) [말토헵타오스, maltoheptaose]		20 배 (fold)	7 배 (fold)
